Target: phosphorylated active hERK2 enzyme (Homo sapiens (Human), UniProt P28482)
Conditions: read-out: ERK2 IC50; IMAP-FP assay; 0.5 nM hERK2, 30 μM ATP; 10 point titration, 3 μM starting concentration

Chain of phosphorylated active hERK2 enzyme (P28482 whole entry): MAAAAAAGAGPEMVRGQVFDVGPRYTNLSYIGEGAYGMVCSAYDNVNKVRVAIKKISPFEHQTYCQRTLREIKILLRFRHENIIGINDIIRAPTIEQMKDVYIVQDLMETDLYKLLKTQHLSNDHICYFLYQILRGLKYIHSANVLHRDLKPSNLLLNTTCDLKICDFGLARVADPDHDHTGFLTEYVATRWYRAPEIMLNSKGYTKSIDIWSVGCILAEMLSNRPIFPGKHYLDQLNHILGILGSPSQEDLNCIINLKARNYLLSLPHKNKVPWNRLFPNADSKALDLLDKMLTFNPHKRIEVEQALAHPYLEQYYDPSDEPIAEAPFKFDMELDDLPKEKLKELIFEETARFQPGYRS

SMILES	IC50 [nM]
Cc1cc(-n2ncc3cc(NC(=O)NC4CCC(c5ccc(F)cc5)C4)ncc32)ccn1 (stereo not drawn) [Example 170, 1-[3-(4-fluorophenyl)cyclopentyl]-3-[1-(2-methylpyridin-4-yl)-1H-pyrazolo[3,4-c]pyridin-5-yl]urea]	196
Cc1cc(-n2ncc3cc(NC(=O)NCc4sc(C(C)C)nc4C)ncc32)ccn1 [Example 68, 1-{[4-methyl-2-(1-methylethyl)-1,3-thiazol-5-yl]methyl}-3-[1-[2-methylpyridin-4-yl)-1H-pyrazolo[3,4-c]pyridin-5-yl]urea]	707
Cc1cc(-n2ncc3cc(NC(=O)NCc4ccc(-n5cccn5)cc4)ncc32)ccn1 [Example 76, 1-[1-(2-methylpyridin-4-yl)-1H-pyrazolo[3,4-c]pyridin-5-yl]-3-[4-(1H-pyrazol-1-yl)benzyl]urea]	1110
Cc1cc(-n2ncc3cc(NC(=O)N[C@H](Cn4ccnc4)c4ccccc4)ncc32)ccn1 [Example 134, 1-[(1S)-2-(1H-imidazol-1-yl)-1-phenylethyl]-3-[1-(2-methylpyridin-4-yl)-1H-pyrazolo[3,4-c]pyridin-5-yl]urea]	475
C[C@@H](NC(=O)Nc1cc2cnn(-c3ccc(F)cc3)c2c(CNCCN(C)C)n1)c1ccccc1 [Example 320, 1-[7-({[2-(dimethylamino)ethyl]amino}methyl)-1-(4-fluorophenyl)-1H-pyrazolo[3,4-c]pyridin-5-yl]-3-[(1R)-1-phenylethyl]urea]	1240
Cc1cc(-n2ncc3cc(NC(=O)N[C@H](CN4CCOCC4)c4ccccc4)ncc32)ccn1 [Example 127, 1-[1-(2-methylpyridin-4-yl)-1H-pyrazolo[3,4-c]pyridin-5-yl]-3-[(1S)-2-morpholin-4-yl-1-phenylethyl]urea]	152
Cc1cc(-n2ncc3cc(NC(=O)N[C@H]4CCCC[C@@H]4N(C)C)ncc32)ccn1 [Example 143, 1-[(1S,2S)-2-(dimethylamino)cyclohexyl]-3-[1-(2-methylpyridin-4-yl)-1H-pyrazolo[3,4-c]pyridin-5-yl)urea]	127
C[C@H](NC(=O)Nc1cc2cnn(-c3ccc(F)cc3)c2cn1)c1ccccn1 [Example 221, 1-[1-(4-fluorophenyl)-1H-pyrazolo[3,4-c]pyridin-5-yl]-3-[(1S)-1-pyridin-2-ylethyl]urea]	1790
C[C@@H](NC(=O)Nc1cc2cnn(CC3CCC3)c2c(CO)n1)c1ccccc1 [Example 304, 1-[1-(cyclobutylmethyl)-7-(hydroxymethyl)-1H-pyrazolo[3,4-c]pyridin-5-yl]-3-[(1R)-1-phenylethyl]urea]	230
Cc1cc(-n2ncc3cc(NC(=O)N[C@H](C)c4ccccc4)nc(COCCN4CCOCC4)c32)ccn1 [Example 249, 1-{1-(2-methylpyridin-4-yl)-7-[(2-morpholin-4-ylethoxy)methyl]-1H-pyrazolo[3,4-c]pyridin-5-yl}-3-[(1R)-1-phenylethyl]urea]	127
Cc1cc(-n2ncc3cc(NC(=O)N[C@H]4CCCC[C@@H]4N)ncc32)ccn1 [Example 138, 1-[(1S,2S)-2-aminocyclohexyl]-3-[1-(2-methylpyridin-4-yl)-1H-pyrazolo[3,4-c]pyridin-5-yl]urea]	396
Cc1cc(-n2ncc3cc(NC(=O)NC4COc5ccccc54)ncc32)ccn1 (stereo not drawn) [Example 177, 1-(2,3-dihydro-1-benzofuran-3-yl)-3-[1-(2-methylpyridin-4-yl)-1H-pyrazolo[3,4-c]pyridin-5-yl]urea]	215
CO[C@H]1CN(C)C[C@@H]1NC(=O)Nc1cc2cnn(-c3ccnc(C)c3)c2cn1 [Example 193, 1-[(3S,4S)-4-methoxy-1-methylpyrrolidin-3-yl]-3-[1-(2-methylpyridin-4-yl)-1H-pyrazolo[3,4-c]pyridin-5-yl]urea]	2530
Cc1cc(-n2ncc3cc(NC(=O)N[C@@H]4CN(C)C[C@H]4c4ccccc4C(F)(F)F)ncc32)ccn1 [Example 192, 1-[1-(2-methylpyridin-4-yl)-1H-pyrazolo[3,4-c]pyridin-5-yl]-3-{(3S,4R)-1-methyl-4-[2-(trifluoromethyl)-phenyl]pyrrolidin-3-yl}urea]	235
CC(=O)N[C@H]1CCCC[C@@H]1NC(=O)Nc1cc2cnn(-c3ccnc(C)c3)c2cn1 [Example 139, N-[(1S,2S)-2-({[1-(2-methylpyridin-4-yl)-1H-pyrazolo[3,4-c]pyridin-5-yl]carbamoyl}amino)cyclohexyl] acetamide]	2160
Cc1cc(-n2ncc3cc(NC(=O)N[C@H]4CCC[C@@H]4Oc4cccnc4)ncc32)ccn1 [Example 179, 1-[1-(2-methylpyridin-4-yl)-1H-pyrazolo[3,4-c]pyridin-5-yl]-3-[(1S,2S)-2-(pyridin-3-yloxy)cyclopentyl]urea]	511

Molecules with a lower IC50, results first:

IC50 [nM]	SMILES
69.3	Cn1ncc2cc(NC(=O)N[C@@H](c3ccccc3)C(C)(C)O)nc(CO)c21 [Example 226, 1-[7-(hydroxymethyl)-1-methyl-1H-pyrazolo[3,4-c]pyridin-5-yl]-3-[(1S)-2-hydroxy-2-methyl-1-phenylpropyl]urea]
40.3	Cc1cc(-n2ncc3cc(NC(=O)NC(C)c4ccc(OC(F)(F)F)cc4)ncc32)ccn1 (stereo not drawn) [Example 47]
19.1	Cc1cc(-n2ncc3cc(NC(=O)NCCNCc4ccccc4)ncc32)ccn1 [Example 96, 1-[2-(benzylamino)ethyl]-3-[1-(2-methylpyridin-4-yl)-1H-pyrazolo[3,4-c]pyridin-5-yl]urea]
8.26	Cc1cc(-n2ncc3c(F)c(NC(=O)N[C@H](C)c4ccccc4)ncc32)ccn1 [Example 224, (R)-1-(4-Fluoro-1-(2-methylpyridin-4-yl)-1H-pyrazolo[3,4-c]pyridin-5-yl)-3-(1-phenylethyl)urea]
23.4	Cc1cc(-n2ncc3cc(NC(=O)N[C@H](C)c4ccccc4)nc(COCCO)c32)ccn1 [Example 253, 1-{7-[(2-hydroxyethoxy)methyl]-1-(2-methylpyridin-4-yl)-1H-pyrazolo[3,4-c]pyridin-5-yl}-3-[(1R)-1-phenylethyl]urea]
0.558	Cc1cc(-n2ncc3cc(NC(=O)N[C@@H](c4ccccc4)C(C)(C)O)ncc32)ccn1 [Example 292, (S)-1-(2-methyl-2-hydroxy-1-phenylpropyl)-3-(1-(2-methylpyridin-4-yl)-1H-pyrazolo[3,4-c]pyridin-5-yl)urea]
0.323	Cc1cc(-n2ncc3cc(NC(=O)N[C@@H]4CCN(Cc5c(F)cccc5F)C4)ncc32)ccn1 [Example 283, 1-[(3R)-1-(2,6-difluorobenzyl)pyrrolidin-3-yl]-3-[1-(2-methylpyridin-4-yl)-1H-pyrazolo[3,4-c]pyridin-5-yl]urea]
0.499	O=C(NCc1cccc(Cl)c1)Nc1cc2cnn(-c3ccncc3)c2cn1 [Example 41, 1-(3-chlorobenzyl)-3-(1-pyridin-4-yl-1H-pyrazolo[3,4-c]pyridin-5-yl)urea]
70	Cc1cc(-n2ncc3cc(NC(=O)NCC4CN(C)C4)ncc32)ccn1 [Example 264, 1-((1-methylazetidin-3-yl)methyl)-3-(1-(2-methylpyridin-4-yl)-1H-pyrazolo[3,4-c]pyridin-5-yl)urea]
35.3	Cc1cc(-n2ncc3cc(NC(=O)N[C@H]4CNC[C@@H]4Oc4ccccc4)ncc32)ccn1 [Example 157, 1-[1-(2-methylpyridin-4-yl)-1H-pyrazolo[3,4-c]pyridin-5-yl]-3-[(3S,4S)-4-phenoxypyrrolidin-3-yl)urea]
47.7	CO[C@@H]1CN(C)C[C@H]1NC(=O)Nc1cc2cnn(-c3ccnc(C)c3)c2cn1 [Example 194, 1-[(3R,4R)-4-methoxy-1-methylpyrrolidin-3-yl]-3-[1-(2-methylpyridin-4-yl)-1H-pyrazolo[3,4-c]pyridin-5-yl]urea]
4.39	COCCOC[C@@H](NC(=O)Nc1cc2cnn(-c3ccnc(C)c3)c2cn1)c1ccccc1 [Example 136, 1-[(1S)-2-(2-methoxyethoxy)-1-phenylethyl]-3-[1-(2-methylpyridin-4-yl)-1H-pyrazolo[3,4-c]pyridin-5-yl]urea]
0.99	Cn1ncc2ccc(-n3ncc4cc(NC(=O)N[C@@H](c5ccccc5)C(C)(C)O)ncc43)cc21 [Example 206, 1-[(1S)-2-hydroxy-2-methyl-1-phenylpropyl]-3-[1-(1-methyl-1H-indazol-6-yl)-1H-pyrazolo[3,4-c]pyridin-5-yl]urea]
2.84	Cc1cc(-n2ncc3cc(NC(=O)NC4CCN(Cc5cccnc5Cl)C4)ncc32)ccn1 (stereo not drawn) [Example 281, 1-{1-[(2-chloropyridin-3-yl)methyl]pyrrolidin-3-yl}-3-[1-(2-methylpyridin-4-yl)-1H-pyrazolo[3,4-c]pyridin-5-yl]urea]
1.52	Cc1cc(-n2ncc3cc(NC(=O)N[C@@H]4CN(C)[C@H](C)[C@H]4c4ccccc4C)ncc32)ccn1 [Example 106, 1-[(3S,4S,5R)-1,5-dimethyl-4-(2-methylphenyl)-pyrrolidin-3-yl]-3-[1-(2-methylpyridin-4-yl)-1H-pyrazolo[3,4-c]pyridin-5-yl)urea]
39.9	CCO[C@H]1CNC[C@@H]1NC(=O)Nc1cc2cnn(-c3ccnc(C)c3)c2cn1 [Example 272, 1-[(3S,4S)-4-ethoxypyrrolidin-3-yl]-3-[1-(2-methylpyridin-4-yl)-1H-pyrazolo[3,4-c]pyridin-5-yl]urea]
2.7	O=C(NCc1ccccc1)Nc1cc2cnn(-c3ccncc3)c2cn1 [Example 2, 1-benzyl-3-(1-pyridin-4-yl-1H-pyrazolo[3,4-c]pyridin-5-yl)urea]
35.3	CCn1ncc2cc(NC(=O)N[C@H](C)c3ccccc3)nc(OCCO)c21 [Example 258, 1-[1-ethyl-7-(2-hydroxyethoxy)-1H-pyrazolo[3,4-c]pyridin-5-yl]-3-[(1R)-1-phenylethyl]urea]
50.5	Cc1cc(-n2ncc3cc(NC(=O)N[C@@H]4CCN(C)C4)ncc32)ccn1 [Example 20, 1-[1-(2-methylpyridin-4-yl)-1H-pyrazolo[3,4-c]pyridin-5-yl]-3-[(3R)-1-methylpyrrolidin-3-yl)urea]
45.3	CCO[C@H]1CN(Cc2c(F)cccc2F)C[C@@H]1NC(=O)Nc1cc2cnn(-c3ccnc(C)c3)c2cn1 [Example 278, 1-[(3S,4S)-1-(2,6-difluorobenzyl)-4-ethoxypyrrolidin-3-yl]-3-[1-(2-methylpyridin-4-yl)-1H-pyrazolo[3,4-c]pyridin-5-yl]urea]

Source: US9884048B2, “ERK inhibitors” (Merck Sharp & Dohme Corp., priority 2014, dated 2018)
